Test results taken from patent US20130210846A1, “USE OF NOVEL PAN-CDK INHIBITORS FOR TREATING TUMORS” (BAYER INTELLECTUAL PROPERTY GMBH, priority 2010, published 2013).

Experiments:
HeLa-MaTu = assay: Proliferation assay HeLa-MaTu; assay type: cell-based, human; conditions: Homo sapiens, 96 h, cervix carcinoma, 4 days, crystal violet
Summary of the method: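 IC50 values come from a 4-parameter fit of crystal violet proliferation data, with the zero-point plate set as 100% inhibition. Compound exposure lasted 4 days at up to 30 μM in 10% FCS medium.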

A375 = assay: Proliferation assay A375; assay type: cell-based; conditions: Homo sapiens, A-375, 96 h; A375, skin: melanoma; 4 days, crystal violet
Description: Cultivated human tumor cells (originally obtained from ATCC, HeLa-MaTu and HeLa-MaTu-ADR, originally obtained from Epo GmbH, Berlin, Germany) were plated at a density of 1000 to 5000 cells/measuring point, depending on the growth rate of the cell line, in a 96-well multititer plate in 200 μl of growth medium (DMEM/HAMS F12, 2 mM L-glutamine, 10% fetal calf serum). After 24 hours the cells of one plate (zero-point plate) were stained with crystal violet (see below), whereas the medium of the other plates was replaced with fresh culture medium (200 μl), to which the test substances had been added at various concentrations (0 μM, and in the range 0.01-30 μM; the final concentration of the solvent dimethyl sulfoxide was 0.5%). The cells were incubated for 4 days in the presence of the test substances. Cellular proliferation was determined by staining the cells with crystal violet: the cells were fixed by adding 20 μl/measuring point of an 11% glutaraldehyde solution for 15 min at room temperature. […] The extinction was determined photometrically at a wavelength of 595 nm. The percentage change in cell growth was calculated by standardization of the measured values to the extinction values of the zero-point plate (=0%) and the extinction of the untreated (0 μM) cells (=100%). […] The IC50 values were determined by means of a 4-parameter fit using the company's own software. […]

[1] = test system: HeLa-MaTu human cervix carcinoma cells; assay: HeLa-MaTu human cervix carcinoma xenograft model; assay type: in vivo, female NMRI nude mice
Text: (§1) Tumor cells grown in cell culture were implanted subcutaneously in the flank of female or male NMRI nude mice. The treatment was started as soon as the tumors had grown to a size of approx. 20 mm^2 The study was ended as soon as the tumors in one of the groups reached a size of approx. 150 mm^2.
(§2) Vehicle group: treatment with solubilizer (40% PEG400/60% water)
(§3) The studies were designed for determining the initial response of the human tumor model to the treatment with the Exemplary compound 2-SI-2. Tumor growth inhibition in percent (TGI) was either calculated at the end of the studies from the tumor weights (TGITW) using the formula 100×[1−(tumor weight of the treatment group/tumor weight of the vehicle group)], or on the day the vehicle group had to be ended from the tumor areas (TGITA) using the formula 100×[1−(tumor area of the treatment group on the day of the measurement−tumor area of the treatment group prior to treatment)/(tumor area of the vehicle group on the day of the measurement−tumor area of the vehicle group prior to treatment)]. In the case of a tumor growth inhibition of more than 50%, the treatment was considered to have been effective.
Efficacy in the HeLa-MaTu human cervix carcinoma xenograft model
HeLa-MaTu human cervix carcinoma cells implanted into female NMRI nude mice
• a) 0.05 mg/ml, 0.10 mg/ml, 0.15 mg/ml, 0.2 mg/ml of Example 2-SI-2 in 40% (v/v) PEG 400 in water • b) 0.15 mg/ml, 0.2 mg/ml, 0.25 mg/ml of Example 2-SI-2 in 40% (v/v) PEG 400 in water
• a) 0.5 to 2.0 mg/kg (1.5 to 6.0 mg/m^2) 1× per day b) 1.5 to 2.5 mg/kg (4.5 to 7.5 mg/m^2) 2× per day on 2 successive days, followed by 5 treatment-free days

[2] = test system: HCT116 human colorectal tumor cells; assay: HCT116 human colorectal xenograft model; assay type: in vivo, female NMRI nude mice
Text: as §1, §2, §3
Efficacy in the HCT116 human colorectal xenograft model.
HCT116 human colorectal tumor cells implanted into female NMRI nude mice.
• a) 0.15 mg/ml, 0.20 mg/ml of Example 2-SI-2 in 40% (v/v) PEG 400 in water • b) 0.20 mg/ml, 0.25 mg/ml of Example 2-SI-2 in 40% (v/v) PEG 400 in water • c) 0.40 mg/ml, 0.50 mg/ml, 0.60 mg/ml of Example 2-SI-2 in 40% (v/v) PEG 400 in water
• a) 1.5 and 2.0 mg/kg (4.5 and 6.0 mg/m^2), 1× per day. • b) 2.0 and 2.5 mg/kg (6.0 and 7.5 mg/m^2), 2× per day on 2 successive days, followed by 5 treatment-free days. • c) 4.0 to 6.0 mg/kg (12 to 18 mg/m^2), 1× per day on 2 successive days, followed by 5 treatment-free days.

[3] = test system: NCI-H69 human small-cell lung tumor cells; assay: NCI-H69 human small-cell lung tumor model; assay type: in vivo, female NMRI nude mice
Text: as §1, §2, §3
Efficacy in the NCI-H69 human small-cell lung tumor model.
NCI-H69 human small-cell lung tumor cells implanted into female NMRI nude mice. […]

[4] = HeLa-MaTu; b) 2.5 mg/kg oral 2× per day on 2 successive days, followed by 5 treatment-free days
[5] = HCT116; b) 2.5 mg/kg oral 2× per day on 2 successive days, followed by 5 treatment-free days

`C[C@@H](O)[C@@H](C)Nc1nc(Nc2ccc(S(=N)(=O)C3CC3)cc2)ncc1C(F)(F)F` (mixture of isomers) [Example 4-SI-1, (RS)—S-Cyclopropyl-S-(4-{[4-{[(1R,2R)-2-hydroxy-1-methylpropyl]amino}-5-(trifluoromethyl)-pyrimidin-2-yl]amino}phenyl)sulfoximide] showed an IC50 (HeLa-MaTu) of 10 nM.
`C[C@@H](O)[C@@H](C)Oc1nc(Nc2ccc(S(C)(=N)=O)cc2)ncc1C(F)(F)F` (single isomer, unassigned) [Example 2-SI-2] was tested, and the IC50 (A375) was 15 nM.
`C[C@@H](O)[C@@H](C)Oc1nc(Nc2ccc(S(C)(=N)=O)cc2)ncc1C(F)(F)F` (mixture of isomers) [Example 2-SI-2, (RS)—S-(4-{[4-{[(1R,2R)-2-Hydroxy-1-methylpropyl]oxy}-5-(trifluoromethyl)pyrimidin-2-yl]-amino}phenyl)-S-methylsulfoximide] was tested, and the “TGITW (tumor growth inhibition from tumor weights)” value ([1]; HeLa-MaTu; a) 2.0 mg/kg oral 1× per day) was 97%, the “TGITW (tumor growth inhibition from tumor weights)” value [1, 4] was 98% and the tumor regression observation [1, 4] was “signs of tumor regression”. The “TGITW (tumor growth inhibition from tumor weights)” value ([2]; HCT116; a) 2.0 mg/kg oral 1× per day) was 67%, the “TGITW (tumor growth inhibition from tumor weights)” value [2, 5] was 57% and the tumor regression observation [2, 5] was “signs of tumor regression”. For the same molecule, the “TGITW (tumor growth inhibition from tumor weights)” value ([2]; HCT116; c) 5.0 mg/kg oral 1× per day on 2 successive days, followed by 5 treatment-free days) was 83%, the “TGITA (tumor growth inhibition from tumor areas, measured on the day the vehicle group was ended)” value ([3]; NCI-H69; a) 2.0 mg/kg oral 1× per day) was 99% and the “TGITA (tumor growth inhibition from tumor areas)” value ([3]; NCI-H69; b) 2.5 mg/kg oral 2× per day on 2 successive days, followed by 5 treatment-free days) was 110%.
